Experimental findings from ChEMBL document CHEMBL1201862, “PubChem BioAssay data set” (2004) are described below.

The target of test [1] is Glutathione-S-transferase (Schistosoma japonicum, UniProt Q26513). Put plainly: GST-antibody interaction or FRET quenching – biochemical, TR-FRET, artefact control for Vif-APOBEC3G degradation inhibitor project, dose response (AID 1117362). It counts as functional.
A short description of test [2]: viability loss in THP-1 monocytes – THP-1 cells, cytotoxicity control for Vif-APOBEC3G degradation inhibitor project, dose response (AID 1117359). It is filed as functional. The conditions noted are these: THP-1.
Test [3] in a line: HEK-293T viability loss after treatment – luminescence, T-cell screen hits, cytotoxicity control for TCR NF-kB inhibitor project, dose response (AID 489026).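 Also: cells exposed to compound about 14 hours before the viability readout.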 It is filed as functional, cell-based.
Test [4] deals with RNA-editing ligase 1, mitochondrial (Trypanosoma brucei brucei, UniProt P86926). Put plainly: inhibition of trypanosome RNA editing ligase – biochemical, fluorescence, Trypanosoma brucei, dose response (AID 1117295). It is filed as functional.
RNA-editing ligase 1, mitochondrial, sequence (P86926 whole entry): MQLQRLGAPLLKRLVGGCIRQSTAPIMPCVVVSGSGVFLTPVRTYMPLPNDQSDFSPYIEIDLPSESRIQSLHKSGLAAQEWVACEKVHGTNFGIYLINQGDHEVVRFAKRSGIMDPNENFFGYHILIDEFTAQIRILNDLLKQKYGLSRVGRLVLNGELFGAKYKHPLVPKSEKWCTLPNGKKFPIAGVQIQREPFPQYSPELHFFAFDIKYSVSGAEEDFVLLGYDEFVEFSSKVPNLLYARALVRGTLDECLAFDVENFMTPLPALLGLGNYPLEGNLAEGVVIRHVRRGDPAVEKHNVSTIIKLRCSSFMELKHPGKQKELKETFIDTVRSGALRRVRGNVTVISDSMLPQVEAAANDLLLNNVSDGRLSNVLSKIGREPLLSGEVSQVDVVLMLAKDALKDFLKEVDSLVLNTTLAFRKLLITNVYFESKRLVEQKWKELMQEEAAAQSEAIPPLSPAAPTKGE
Test [5] can be described thus: DRD fibroblast viability loss – cell-based, non-viral oncogenic, luminescence, dose response (AID 1934). The note with it: Homo sapiens. It is filed as functional.
The subject of test [6] is BJ. Put plainly: BJ-TERT fibroblast viability loss – cell-based, RAS-independent, luminescence, dose response (AID 1933). It is filed as functional. The note with it: Homo sapiens.
Test [7] deals with BJ. Put plainly: cells. It counts as functional, cell-based. The conditions noted are these: Homo sapiens.
The test system of test [8] is BJ. Nature of the test: BJ-TERT-LT-ST fibroblast viability loss – cell-based, RAS-independent, luminescence, dose response (AID 1935).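 Also: BJ fibroblasts immortalized with TERT plus LT and ST oncogenes.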 The conditions noted are these: Homo sapiens. It counts as functional.
The target in test [9] is T1, Aminopeptidase N (Plasmodium falciparum FcB1/Columbia, UniProt O96935).
T1 sequence (O96935 whole entry): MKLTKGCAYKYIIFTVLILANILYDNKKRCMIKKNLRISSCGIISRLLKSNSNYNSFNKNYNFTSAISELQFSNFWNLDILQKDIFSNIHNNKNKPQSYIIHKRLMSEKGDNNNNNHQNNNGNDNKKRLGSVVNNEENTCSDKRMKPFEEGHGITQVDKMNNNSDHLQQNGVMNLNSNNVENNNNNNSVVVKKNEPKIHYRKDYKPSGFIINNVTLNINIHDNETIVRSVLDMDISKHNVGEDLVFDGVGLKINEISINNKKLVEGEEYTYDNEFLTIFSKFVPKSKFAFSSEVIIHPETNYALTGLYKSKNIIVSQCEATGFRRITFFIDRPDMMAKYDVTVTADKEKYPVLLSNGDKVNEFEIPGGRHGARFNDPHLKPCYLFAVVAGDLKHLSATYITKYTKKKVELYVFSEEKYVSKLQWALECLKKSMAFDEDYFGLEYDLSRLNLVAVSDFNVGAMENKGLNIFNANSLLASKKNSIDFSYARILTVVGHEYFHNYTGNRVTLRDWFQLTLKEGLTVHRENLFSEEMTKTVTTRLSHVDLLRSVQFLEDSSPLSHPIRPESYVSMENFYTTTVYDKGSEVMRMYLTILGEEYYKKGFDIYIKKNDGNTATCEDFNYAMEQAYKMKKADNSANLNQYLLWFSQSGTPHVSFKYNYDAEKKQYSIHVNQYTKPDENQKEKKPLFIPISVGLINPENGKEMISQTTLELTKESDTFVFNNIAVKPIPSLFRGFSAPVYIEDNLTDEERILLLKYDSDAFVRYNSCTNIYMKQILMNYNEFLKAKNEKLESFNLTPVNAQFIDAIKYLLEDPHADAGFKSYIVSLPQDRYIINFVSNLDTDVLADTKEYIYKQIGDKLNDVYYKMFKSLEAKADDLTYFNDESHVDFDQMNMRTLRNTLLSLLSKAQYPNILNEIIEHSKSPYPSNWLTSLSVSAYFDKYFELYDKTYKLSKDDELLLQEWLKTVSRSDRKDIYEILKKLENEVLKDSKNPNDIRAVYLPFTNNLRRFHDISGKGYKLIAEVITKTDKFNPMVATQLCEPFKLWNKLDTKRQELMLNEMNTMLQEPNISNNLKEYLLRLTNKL
Nature of the test: malaria alanyl aminopeptidase activity blockers – biochemical, fluorogenic H-Leu-NHMec substrate, 1536-well (AID 1445). Further details: species or system Plasmodium falciparum 3D7, 3D7.

In test [10] the target is Endoplasmic reticulum aminopeptidase 1 (Homo sapiens, UniProt Q9NZ08). Nature of the test: inhibition of human ERAP1 enzyme activity – biochemical, cherry-pick, set 2, plate reader, dose response (AID 743314).
Endoplasmic reticulum aminopeptidase 1, sequence (Q9NZ08 whole entry): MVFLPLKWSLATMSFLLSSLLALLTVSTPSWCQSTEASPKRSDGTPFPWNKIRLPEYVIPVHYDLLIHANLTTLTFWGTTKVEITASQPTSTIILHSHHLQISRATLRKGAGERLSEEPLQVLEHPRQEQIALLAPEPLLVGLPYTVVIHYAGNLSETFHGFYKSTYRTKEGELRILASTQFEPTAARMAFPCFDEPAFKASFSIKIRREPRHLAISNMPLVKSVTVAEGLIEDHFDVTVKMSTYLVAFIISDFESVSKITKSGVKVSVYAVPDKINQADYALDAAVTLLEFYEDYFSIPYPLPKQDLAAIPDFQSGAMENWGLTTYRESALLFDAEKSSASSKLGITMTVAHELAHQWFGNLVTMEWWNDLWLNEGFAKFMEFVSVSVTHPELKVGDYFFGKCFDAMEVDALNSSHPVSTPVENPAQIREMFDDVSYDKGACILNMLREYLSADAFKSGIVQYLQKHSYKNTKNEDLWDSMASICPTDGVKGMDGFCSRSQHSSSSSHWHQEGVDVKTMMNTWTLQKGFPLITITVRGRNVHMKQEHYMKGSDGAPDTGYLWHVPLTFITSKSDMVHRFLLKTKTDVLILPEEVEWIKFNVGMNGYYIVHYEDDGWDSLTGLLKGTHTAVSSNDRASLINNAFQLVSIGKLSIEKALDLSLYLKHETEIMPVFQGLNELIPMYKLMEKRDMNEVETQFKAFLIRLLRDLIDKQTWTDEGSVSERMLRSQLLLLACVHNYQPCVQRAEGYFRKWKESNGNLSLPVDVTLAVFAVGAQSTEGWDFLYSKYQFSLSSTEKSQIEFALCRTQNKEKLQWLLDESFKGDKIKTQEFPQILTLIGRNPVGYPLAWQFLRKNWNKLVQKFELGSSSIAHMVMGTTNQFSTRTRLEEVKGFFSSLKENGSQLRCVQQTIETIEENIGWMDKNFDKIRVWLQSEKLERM
Test [11] addresses COUP transcription factor 2 (Homo sapiens, UniProt P24468). Put plainly: Luminescence-based cell-based high throughput dose response assay to identify inhibitors of COUP-TFII (NR2F2). It counts as functional.
Test [12] deals with INS1. Nature of the test: INS-1E survival protection against cytokine death – cell-based, luminescence, retest, dose response (AID 449756).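 Also: cell death triggered by IL-1 beta plus TNF-alpha plus IFN-gamma mixture; protective hits raise ATP signal compared with cytokine alone wells.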 It is filed as functional. The note with it: Rattus norvegicus, INS1.
For test [13], the target named is T2, Serine/threonine-protein phosphatase (Candida dubliniensis (strain CD36 / CBS 7987 / NCPF 3949 / NRRLY-17841) (Yeast), UniProt B9W6M3).
T2 sequence (B9W6M3 whole entry): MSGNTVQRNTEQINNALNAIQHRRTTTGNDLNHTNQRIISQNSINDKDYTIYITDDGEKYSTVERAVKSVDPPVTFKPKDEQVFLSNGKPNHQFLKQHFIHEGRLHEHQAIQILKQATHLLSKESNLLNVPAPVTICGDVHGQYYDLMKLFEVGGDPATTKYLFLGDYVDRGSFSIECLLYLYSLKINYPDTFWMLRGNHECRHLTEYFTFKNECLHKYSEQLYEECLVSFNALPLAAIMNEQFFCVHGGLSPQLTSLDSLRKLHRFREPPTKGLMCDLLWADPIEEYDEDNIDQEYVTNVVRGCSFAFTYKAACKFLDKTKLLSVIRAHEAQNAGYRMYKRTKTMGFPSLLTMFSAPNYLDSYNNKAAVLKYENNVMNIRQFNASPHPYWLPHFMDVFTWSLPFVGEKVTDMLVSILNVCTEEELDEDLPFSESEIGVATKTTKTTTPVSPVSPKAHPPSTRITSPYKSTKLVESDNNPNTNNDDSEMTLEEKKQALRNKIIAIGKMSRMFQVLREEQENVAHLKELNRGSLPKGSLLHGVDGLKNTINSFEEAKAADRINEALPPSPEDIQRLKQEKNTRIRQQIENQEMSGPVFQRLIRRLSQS
Nature of the test: blockers of CaCl2-induced CDRE-lacZ signaling – S. cerevisiae, luminescence, secondary, dose response (AID 2388).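 Also: yeast reporter cells carrying a calcineurin-responsive lacZ construct stimulated with calcium chloride; luminescent beta-galactosidase reporter signal in whole cells rather than isolated phosphatase activity; potency for inhibition where a drop in reporter signal means calcineurin blockade.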 It is filed as functional, cell-based.

A short description of test [14]: fluconazole-exposed Candida albicans growth modulators – fluorescence, retest, confirmation (AID 2467). It is filed as functional, cell-based.
A short description of test [15]: loss of viability in HepG2 cells – cell-based, CellTiter-Glo, cherry-picked, cytotoxicity control for Shn3 inhibitor project, dose response (AID 624134). It counts as functional. (In general: ATP-based viability assays read luminescence as a measure of living cells.)
Test [16] can be described thus: non-specific 3'UTR reporter inhibition in Clone20-Shn3RL – cell-based, Renilla luciferase, cherry-picked, counter-screen for Shn3 inhibitor project, dose response (AID 624133). It is filed as functional.
Test [17] is described as follows: reduction of Shn3 3'UTR-driven luciferase in osteoblasts – cell-based, Clone20 osteoblasts, firefly luciferase, cherry-picked, dose response (AID 624132).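 Also: firefly luciferase luminescence from reporter carrying the Shn3 3'UTR in osteoblasts.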 It counts as functional.
The target in test [18] is Galanin receptor type 3 (Homo sapiens, UniProt O60755). Nature of the test: Fluorescence-based cell-based primary high throughput dose response assay to identify antagonists of the Galanin Receptor 3 (GalR3). It is filed as functional.
Galanin receptor type 3, sequence (O60755 whole entry): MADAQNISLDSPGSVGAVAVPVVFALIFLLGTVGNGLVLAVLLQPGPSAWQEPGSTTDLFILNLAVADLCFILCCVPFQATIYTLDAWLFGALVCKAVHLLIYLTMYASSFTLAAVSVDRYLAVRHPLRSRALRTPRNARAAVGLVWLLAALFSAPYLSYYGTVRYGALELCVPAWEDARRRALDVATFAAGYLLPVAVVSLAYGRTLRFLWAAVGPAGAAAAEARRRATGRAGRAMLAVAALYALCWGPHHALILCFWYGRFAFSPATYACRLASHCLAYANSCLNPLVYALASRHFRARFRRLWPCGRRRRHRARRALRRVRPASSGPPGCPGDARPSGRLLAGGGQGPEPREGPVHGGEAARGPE
A short description of test [19]: cells. It is filed as functional, cell-based. The conditions noted are these: HEK-CNG.
Test [20] addresses ATP-dependent molecular chaperone HSP82 (Candida albicans (strain WO-1) (Yeast), UniProt C4YTQ8). Nature of the test: steroid-induced GRE reporter decrease in yeast – S. cerevisiae, luminescence, Hsp90 inhibitor project, dose response (AID 2400).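 Also: beta-galactosidase luminescence from glucocorticoid response element reporter as proxy for Hsp90 function; inhibitor potency where signal loss means Hsp90 inhibition.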 It counts as functional, cell-based.
The nature of test [21]: NIH-3T3 fibroblast cytotoxicity, dose response, cytotoxicity control, cell-based, fluorescence, Alamar Blue, secondary assay (AID 2327).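 Also: NIH-3T3 mouse fibroblasts cultured with fluconazole at 8 µg/mL.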 It is filed as functional. On the technique in general: Alamar Blue is a resazurin reagent that responds to reducing activity.
In test [22] the target is fMet-Leu-Phe receptor (Homo sapiens, UniProt P21462). Nature of the test: formyl peptide receptor binders – dose response (AID 519). It counts as functional.
fMet-Leu-Phe receptor, sequence (P21462 whole entry): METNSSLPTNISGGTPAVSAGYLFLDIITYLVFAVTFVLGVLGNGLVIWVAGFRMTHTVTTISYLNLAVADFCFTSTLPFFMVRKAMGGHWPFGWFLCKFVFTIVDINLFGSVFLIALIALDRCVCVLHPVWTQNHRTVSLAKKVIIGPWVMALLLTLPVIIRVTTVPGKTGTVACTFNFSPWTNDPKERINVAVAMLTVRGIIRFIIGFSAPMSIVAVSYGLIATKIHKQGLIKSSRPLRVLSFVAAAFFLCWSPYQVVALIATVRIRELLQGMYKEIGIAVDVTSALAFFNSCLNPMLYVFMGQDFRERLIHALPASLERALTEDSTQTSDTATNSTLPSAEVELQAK
A short description of test [23]: viability reduction in hepatoma cells – cell-based, ATP luminescence, dry powder, Set4, cytotoxicity control, dose response (AID 743143). It counts as functional. The conditions noted are these: HepG2.
The nature of test [24]: viability loss in A549 lung cancer cells – cell-based, CellTiter-Glo luminescence, dry powder, set 3, cytotoxicity control, dose response (AID 743146). It is filed as functional.
Test [25] is described as follows: cytotoxicity toward HT-29 cells – cell-based, CellTiter-Glo luminescence, IC50, dose response (AID 1117330). It counts as functional.
Test [26] can be described thus: HCT116 cell viability decrease, GSK3B pretreatment – CellTiter-Glo, IC50, dose response (AID 1117339). It is filed as functional. The conditions noted are these: HCT-116.
Test [27] in a line: SNU-C1 cell viability reduction, dose response, CellTiter-Glo luminescence (AID 1117323). It counts as functional, cell-based.
A short description of test [28]: RKO cell viability reduction, dose response, CellTiter-Glo luminescence (AID 1117322). It counts as functional.
Test [29] is described as follows: Reduced DLD-1 viability, concentration-response, CellTiter-Glo luminescence (AID 1117352). It is filed as functional.
Test [30] in a line: cytotoxicity toward Colo320 cells – cell-based, CellTiter-Glo luminescence, IC50, dose response (AID 1117334). It counts as functional. The note with it: COLO 320.
A short description of test [31]: CellTiter-Glo luminescence survival assay, SW480 colon tumor line, concentration-response curve, half-maximal inhibitory concentration (AID 1117338). It is filed as functional.
Test [32] can be described thus: cytotoxicity toward HCT116 cells – cell-based, CellTiter-Glo luminescence, IC50, dose response (AID 1117332). It counts as functional. The conditions noted are these: HCT-116.

Calls of active or inactive are those of the source.

Glutathione-S-transferase, sequence (Q26513 whole entry): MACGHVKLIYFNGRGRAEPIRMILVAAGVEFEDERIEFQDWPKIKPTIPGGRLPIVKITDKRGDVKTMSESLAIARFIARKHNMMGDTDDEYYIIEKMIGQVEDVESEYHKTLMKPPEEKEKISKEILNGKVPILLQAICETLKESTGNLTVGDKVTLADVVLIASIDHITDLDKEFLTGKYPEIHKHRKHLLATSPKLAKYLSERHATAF
COUP transcription factor 2, sequence (P24468 whole entry): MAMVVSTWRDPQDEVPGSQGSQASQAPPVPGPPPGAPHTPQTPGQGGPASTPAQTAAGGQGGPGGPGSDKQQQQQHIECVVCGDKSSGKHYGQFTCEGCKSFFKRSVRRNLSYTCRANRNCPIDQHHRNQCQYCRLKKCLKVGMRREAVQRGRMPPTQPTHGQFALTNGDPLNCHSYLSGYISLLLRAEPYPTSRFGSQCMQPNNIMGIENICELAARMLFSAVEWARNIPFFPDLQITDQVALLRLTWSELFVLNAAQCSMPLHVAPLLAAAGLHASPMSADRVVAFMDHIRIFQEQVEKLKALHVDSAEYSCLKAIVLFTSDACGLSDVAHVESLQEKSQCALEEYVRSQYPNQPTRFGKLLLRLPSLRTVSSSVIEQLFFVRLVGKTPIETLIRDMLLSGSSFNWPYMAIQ
ATP-dependent molecular chaperone HSP82, sequence (C4YTQ8 whole entry): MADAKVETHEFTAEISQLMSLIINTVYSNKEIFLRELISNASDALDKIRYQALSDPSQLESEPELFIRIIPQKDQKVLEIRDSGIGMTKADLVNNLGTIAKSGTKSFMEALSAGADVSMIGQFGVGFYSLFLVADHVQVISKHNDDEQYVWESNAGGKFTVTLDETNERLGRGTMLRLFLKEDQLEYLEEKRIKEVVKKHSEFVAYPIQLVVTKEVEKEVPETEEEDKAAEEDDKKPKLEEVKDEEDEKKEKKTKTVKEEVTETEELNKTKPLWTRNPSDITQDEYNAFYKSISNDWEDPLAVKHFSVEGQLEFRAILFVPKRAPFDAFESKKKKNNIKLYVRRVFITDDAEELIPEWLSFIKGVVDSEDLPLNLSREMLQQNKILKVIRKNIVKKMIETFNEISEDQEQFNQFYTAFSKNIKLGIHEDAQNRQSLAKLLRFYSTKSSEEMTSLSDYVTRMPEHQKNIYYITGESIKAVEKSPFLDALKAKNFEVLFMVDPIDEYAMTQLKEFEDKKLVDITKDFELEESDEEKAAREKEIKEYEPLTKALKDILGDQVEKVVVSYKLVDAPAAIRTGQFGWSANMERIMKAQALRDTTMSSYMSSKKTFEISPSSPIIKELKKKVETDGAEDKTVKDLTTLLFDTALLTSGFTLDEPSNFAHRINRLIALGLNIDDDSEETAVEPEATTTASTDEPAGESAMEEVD

Consider `O=C(COC(=O)c1ccccc1OC(F)F)Nc1ccc2[nH]c(O)nc2c1`, for which the IC50 (as a rule, the concentration that gives 50% inhibition) in test [1] was > 100 µM (active). Also, the CC50 (in general, the concentration at which the toxic effect on the cells reaches its halfway point) in test [2] was > 40 µM (active).
Consider `CC1(C)CC(N2CCN(C(c3ccccc3)c3ccccc3)CC2)=CC(=[N+]2CCCCC2)C1`, for which the IC50 in test [3] was > 80 µM (inactive); in test [4], > 96.6 µM (inactive). In addition, the EC50 (as a rule, the concentration needed to bring the measured effect to its halfway point) in [5] was 3.82 µM (active); in test [6], 2.36 µM (active); in [7], 3.77 µM (active); in test [8], 3.51 µM (inconclusive).
For `CN1CCN(Cc2c(O)ccc3cc(-c4ccccn4)c(=O)oc23)CC1`, in test [9], the IC50 is 52.2 µM (active). Further, in test [10], the concentration at half-maximal activity (AC50) (commonly the concentration at which the activity in the assay is half-maximal) was 1.88 µM (active).
For `CC(Nc1ncnc2ccccc12)c1ccccc1` (stereo not drawn), the figures for the IC50 in [3], in [11] and in [18] were > 80 µM (inactive), 2.41 µM (active) and 0.128 µM (active), respectively. For the same compound, the AC50 in test [12] is 1.98 µM (active); in test [15], 1.21 µM (active); in test [16] it was 1.14 µM (active); in test [17] it was 0.355 µM (active). Also, the EC50 is > 180 µM (inactive) in [13]; 0.404 µM (active) in test [14]; > 29.9 µM (inactive) in test [19]; > 160 µM (inactive) in test [20]; > 160 µM (inactive) in [21].
Take `CSc1ccccc1NS(=O)(=O)c1ccccc1`: the Ki – broadly, the equilibrium dissociation constant of an inhibitor or competing ligand from its target – in [22] is > 66.7 µM (inactive).
For `COc1cc(C(=O)NCCC(=O)NC2CCCc3ccccc32)cc(OC)c1OC` (stereo not drawn), the AC50 in test [23] was 21.7 µM (active); in test [24], 26.7 µM (active).
Consider `O=C(OCCO)c1ccccc1O`, for which the IC50 in test [25], in test [26], in test [27], in test [28], in test [29] and in test [30] was > 20 µM (inactive) each time. Moreover, the IC50 in [31] and in test [32] was > 20 µM (inactive) each time.
